Measured values from ChEMBL document CHEMBL1132603.

How the values were obtained:
[1] = molecular target: D(3) dopamine receptor (Rattus norvegicus) (UniProt P19020); conditions: C6
Description: Affinity on C6 glioma cells transfected with Dopamine receptor D3

[2] = molecular target: D(2) dopamine receptor (Rattus norvegicus) (UniProt P61169); assay: Inhibition of [3H]spiperone binding to rat striatal membrane Dopamine receptor D2
[3] = molecular target: D(1A) dopamine receptor (Rattus norvegicus) (UniProt P18901); assay: Inhibition of [3H]SCH-23390 binding to rat striatal membrane Dopamine receptor D1
[4] = molecular target: D(2) dopamine receptor (Rattus norvegicus) (UniProt P61169); assay: Affinity on C6 glioma cells transfected with Dopamine receptor D2L; format: cell-based

Chain of D(1A) dopamine receptor (Rattus norvegicus) (P18901 whole entry): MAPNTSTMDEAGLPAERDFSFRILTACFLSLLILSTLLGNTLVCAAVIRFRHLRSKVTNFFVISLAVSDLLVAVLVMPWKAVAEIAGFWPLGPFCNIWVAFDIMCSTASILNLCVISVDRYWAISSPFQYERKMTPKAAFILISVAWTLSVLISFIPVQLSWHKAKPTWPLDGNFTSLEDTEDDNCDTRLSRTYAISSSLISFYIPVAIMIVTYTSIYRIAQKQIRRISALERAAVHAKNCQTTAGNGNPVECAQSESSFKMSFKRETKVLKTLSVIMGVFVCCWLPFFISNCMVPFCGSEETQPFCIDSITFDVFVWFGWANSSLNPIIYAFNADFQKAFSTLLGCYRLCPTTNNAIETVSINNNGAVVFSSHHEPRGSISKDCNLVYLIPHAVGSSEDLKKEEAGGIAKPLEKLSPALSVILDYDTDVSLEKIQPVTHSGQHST
Chain of D(2) dopamine receptor (Rattus norvegicus) (P61169 whole entry): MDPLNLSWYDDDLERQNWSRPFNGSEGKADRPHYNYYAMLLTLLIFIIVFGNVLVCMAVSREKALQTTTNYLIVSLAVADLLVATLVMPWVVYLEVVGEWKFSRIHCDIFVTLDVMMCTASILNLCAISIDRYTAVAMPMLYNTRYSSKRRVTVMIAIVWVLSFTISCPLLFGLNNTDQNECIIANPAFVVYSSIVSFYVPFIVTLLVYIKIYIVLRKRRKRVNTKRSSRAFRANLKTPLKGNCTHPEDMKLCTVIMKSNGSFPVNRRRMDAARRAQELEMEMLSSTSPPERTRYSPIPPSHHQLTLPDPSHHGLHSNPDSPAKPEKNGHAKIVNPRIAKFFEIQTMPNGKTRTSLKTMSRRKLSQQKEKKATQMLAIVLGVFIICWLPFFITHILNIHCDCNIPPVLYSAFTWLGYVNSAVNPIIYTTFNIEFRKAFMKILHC
Chain of D(3) dopamine receptor (Rattus norvegicus) (P19020 whole entry): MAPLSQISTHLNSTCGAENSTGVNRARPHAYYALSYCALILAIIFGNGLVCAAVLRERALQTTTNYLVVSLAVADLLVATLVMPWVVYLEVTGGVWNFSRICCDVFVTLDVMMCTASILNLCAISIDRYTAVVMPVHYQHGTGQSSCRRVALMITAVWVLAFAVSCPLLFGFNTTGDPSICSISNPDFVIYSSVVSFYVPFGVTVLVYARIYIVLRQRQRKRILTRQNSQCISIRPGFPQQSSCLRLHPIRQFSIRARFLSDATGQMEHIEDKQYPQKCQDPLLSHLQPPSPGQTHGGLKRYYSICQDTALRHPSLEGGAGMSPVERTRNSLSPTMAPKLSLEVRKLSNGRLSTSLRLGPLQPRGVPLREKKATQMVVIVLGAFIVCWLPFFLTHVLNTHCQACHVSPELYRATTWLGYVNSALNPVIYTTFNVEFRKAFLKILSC

Row | SMILES | K 0.5 [1] | K 0.5 [2] | K 0.5 [3] | K 0.5 [4]
1 | C=CCN1Cc2ccccc2[C@@H]2Cc3nc(N)ncc3C[C@H]21 | 15.8 nM | 102 nM | > 5 µM | > 5000 nM
2 | CCCN1CCC[C@@H]2Cc3nc(N)ncc3C[C@H]21 | – | 4.78 nM | > 5 µM | 710 nM
3 | CN1CCc2cc(Cl)c(O)cc2[C@@H](c2ccccc2)C1 | – | – | 0.0004 µM | –
4 | c1ccc2c(c1)CN[C@@H]1Cc3c[nH]nc3C[C@@H]21 | 955 nM | 641 nM | > 5 µM | > 5000 nM
5 | CCCN1Cc2ccccc2[C@@H]2Cc3n[nH]cc3C[C@H]21 | 162 nM | 209 nM | > 5 µM | 4300 nM
6 | Oc1ccc2c(c1O)Cc1cccc3c1[C@H]2CNC3 | – | – | – | 174 nM
7 | CN1Cc2ccccc2[C@@H]2Cc3n[nH]cc3C[C@H]21 | 187 nM | 189 nM | > 5 µM | 3090 nM
8 | CCCN1Cc2ccccc2[C@@H]2Cc3nc(N)ncc3C[C@H]21 | 20.2 nM | 45 nM | > 5 µM | > 5000 nM
9 | C=CCN1Cc2ccccc2[C@@H]2Cc3n[nH]cc3C[C@H]21 | 73.7 nM | 100 nM | > 5 µM | 1880 nM
10 | Nc1ncc2c(n1)C[C@H]1c3ccccc3CN[C@@H]1C2 | 324 nM | 467 nM | > 5 µM | –
11 | O=C(CCCN1CCC2(CC1)C(=O)NCN2c1ccccc1)c1ccc(F)cc1 | – | 0.21 nM | – | 0.16 nM
12 | Oc1cc2c(cc1O)[C@H]1c3ccccc3CN[C@@H]1CC2 | 170 nM | – | – | 1490 nM
